Measurements as given in PubChem BioAssay (NCI).
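Results reflect a 48-hour exposure of cells in 96-well plates to compound at five concentrations. TGI marks complete inhibition of growth.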

Key:
Assay in all cases: NCI tumour cell line growth inhibition, 48 h
RPMI-8226 leukemia = system: RPMI-8226 leukemia
SR leukemia = system: SR leukemia
MDA-N = system: MDA-N
A549 NSCLC = system: A549 NSCLC
SK-MEL-2 melanoma = system: SK-MEL-2 melanoma
UO-31 renal = system: UO-31 renal
K-562 leukemia = system: K-562 leukemia
NCI-H226 lung = system: NCI-H226 lung
IGROV1 ovarian = system: IGROV1 ovarian
HOP-62 NSCLC = system: HOP-62 NSCLC
HCC-2998 colon = system: HCC-2998 colon
RXF 393 renal = system: RXF 393 renal
CCRF-CEM leukemia = system: CCRF-CEM leukemia
PC-3 prostate = system: PC-3 prostate
BT-549 breast = system: BT-549 breast
SK-MEL-5 melanoma = system: SK-MEL-5 melanoma
OVCAR-4 ovarian = system: OVCAR-4 ovarian
MOLT-4 leukemia = system: MOLT-4 leukemia
A498 renal = system: A498 renal
MDA-MB-231 breast = system: MDA-MB-231 breast

Row | Structure (SMILES) | TGI (RPMI-8226 leukemia) [µM] | TGI (SR leukemia) [µM] | TGI (MDA-N) [µM] | TGI (A549 NSCLC) [µM] | TGI (SK-MEL-2 melanoma) [µM] | TGI (UO-31 renal) [µM] | TGI (K-562 leukemia) [µM] | TGI (NCI-H226 lung) [µM] | TGI (IGROV1 ovarian) [µM] | TGI (HOP-62 NSCLC) [µM] | TGI (HCC-2998 colon) [µM] | TGI (RXF 393 renal) [µM] | TGI (CCRF-CEM leukemia) [µM] | TGI (PC-3 prostate) [µM] | TGI (BT-549 breast) [µM] | TGI (SK-MEL-5 melanoma) [µM] | TGI (OVCAR-4 ovarian) [µM] | TGI (MOLT-4 leukemia) [µM] | TGI (A498 renal) [µM] | TGI (MDA-MB-231 breast) [µM]
1 | O=C(NCCCNC(=O)c1ccc2cc(O)c(O)cc2c1)c1ccc2cc(O)c(O)cc2c1 | > 100 | > 100 | > 100 | > 100 | 34 | > 100 | > 100 | 57.8 | > 100 | > 100 | 50.9 | 99.7 | 66.3 | > 100 | > 100 | 48.4 | 45.4 | > 100 | > 100 | 
2 | Cc1cc(NS(=O)(=O)c2ccc(N=Nc3c(O)c(C(=O)O)cc4ccccc34)cc2)nc(C)n1 | > 100 | > 100 |  | > 100 | > 100 | > 100 | > 100 | > 100 | > 100 | > 100 | > 100 | > 100 | > 100 | > 100 | > 100 | > 100 | > 100 | > 100 |  | > 100
3 | CN(CCCNc1ccc2ncn3c4ccccc4c(=O)c1c23)CCCN1C(=O)c2cccc3cc([N+](=O)[O-])cc(c23)C1=O |  |  | 2.01 | 0.126 | 6.88 | 2.26 | 0.398 | 1.55 | 1.48 | 2.15 | 0.0916 | 2.14 | 0.973 |  | 2.01 |  | 2.75 | 0.193 | 4.53 | 1.26
4 | CC(=O)[C@]1(O)Cc2c(O)c3c(c(O)c2C(OC2OC(C)C(O)C(O)C2F)C1)C(=O)c1ccccc1C3=O (stereo partly specified) | 2.36 |  | 2.67 |  | 2.88 | 0.0279 | 1.25 | 0.341 | 24.9 | 0.629 | 2.3 | 1.89 | 0.0642 | 3.3 | 2.44 | 0.68 | 11.2 | 0.0577 | 0.398 | 7.21
5 | C[N+](C)(N)CCC[N+](C)(C)N | > 100 | > 100 | > 100 | > 100 | > 100 | > 100 | > 100 | > 100 | > 100 | > 100 |  | > 100 | > 100 | > 100 | > 100 | > 100 | > 100 | > 100 | > 100 | > 100
6 | CN(C)CC(CN(C)C)c1ccccn1 | > 100 | > 100 | > 100 | > 100 | > 100 | > 100 | > 100 | > 100 | > 100 | > 100 |  | > 100 | > 100 | > 100 | > 100 | > 100 | > 100 | > 100 | > 100 | > 100
7 | CC(C(=O)O)c1cnn(-c2ccccc2)c1-n1cccc1 (stereo unspecified) | > 100 |  |  | > 100 | > 100 | > 100 | > 100 | > 100 | > 100 | > 100 | > 100 | > 100 | > 100 |  |  | > 100 | > 100 | > 100 | > 100 | 
8 | CC[C@]12C=CCN3CC[C@@]4(c5ccc(OC)cc5N(C)[C@H]4[C@@](O)(C(=O)OC)[C@@H]1OC(C)=O)[C@@H]32 | > 200 |  |  | > 200 | > 200 | > 92.8 | > 200 | > 200 | > 200 | > 200 | > 200 | > 200 | > 200 |  |  | > 200 | > 63.2 | > 176 | > 200 | 
9 | CC[C@@H]1/C=C/C=C/C[C@H](C)[C@@H](O)[C@](C)(O)C(=O)[C@H](C)[C@@H](O)[C@H](C)C(=O)[C@H](C)[C@@H](O)[C@H](C)/C=C/C(=O)O[C@H]2[C@@H](C)[C@@H](CC1)O[C@]1(O[C@H](CC(C)O)[C@H](C)CC1=O)[C@@H]2C (stereo partly specified) | > 13.9 | 12.8 | 10.7 | > 16.2 | 9.61 | > 20.4 | 14.5 |  | 16.4 | 8.41 | 8 | 7.37 | > 16 | 6.41 | 10.9 | 3.53 | > 19.7 | 11.3 | 7.93 | 8.47
10 | Oc1ccc2ccccc2c1N=Nc1ccc(F)cc1 | > 100 | > 100 |  | > 100 | > 100 | > 100 | > 100 |  | > 100 | > 100 | > 100 | > 100 | > 100 |  |  | > 100 | > 100 | > 100 | > 100 | 
11 | COC(=O)C1(c2ccc(N(C)C)cc2OC)CCCN(C(=O)Oc2ccccc2[N+](=O)[O-])CCc2c1[nH]c1ccccc21 (stereo unspecified) |  | > 100 | > 100 | > 100 | > 100 | > 100 | > 100 | > 100 | > 100 | > 100 | > 100 | > 100 |  | > 100 | > 100 | > 100 |  | > 100 | > 100 | > 100
12 | NCCc1nc(-c2nc(C(=O)O)cs2)cs1 | > 100 | > 100 | > 100 | > 100 | > 100 | > 100 | > 100 |  | > 100 | > 100 |  | > 100 | > 100 | > 100 | > 100 | > 100 | > 100 | > 100 | > 100 | > 100
13 | CC[N+](C)(CC)Cc1ccccc1[N+](=O)[O-] | > 100 | > 100 | > 100 | > 100 | > 100 | > 100 | > 100 | > 100 | > 100 | > 100 |  | > 100 | > 100 | > 100 | > 100 | > 100 | > 100 | > 100 | > 100 | > 100
14 | CCSc1nc(N2CCOCC2)c2cn[nH]c2n1 | > 100 | > 100 |  | > 100 | > 100 | > 100 | > 100 | > 100 | > 100 | > 100 | > 100 | > 100 | > 100 | > 100 | > 100 | > 100 | > 100 | > 100 | 15.9 | > 100
15 | C=CCNc1ccc(C)cc1 |  | > 100 | > 100 | > 100 |  | > 100 | > 100 | > 100 |  |  | > 100 | > 100 | > 100 | > 100 |  | > 100 | > 100 | > 100 | 30.7 | > 100
16 | Cc1ccc2nc3ccccc3c(C3C4C(=O)N(c5ccc(Br)cc5Cl)C(=O)C4ON3C(C(N)=O)c3ccccc3)c2c1 (stereo unspecified) |  | > 25 | 23.6 | > 25 | > 25 | 12.9 | > 25 | > 25 | > 25 | > 25 |  | > 25 | > 25 | > 25 |  | > 25 | > 25 | > 25 | > 25 | > 25
17 | O=c1c2ccccc2nnn1-c1n[nH]c2ccccc12 | > 100 |  |  | > 100 | > 100 | > 100 |  |  | > 100 | > 100 | > 100 | > 100 | > 100 | > 100 | > 100 | > 100 | > 100 |  | > 100 | > 100
18 | CCOc1cc(NC(C)=O)ccc1C(=O)NN1C(=O)C(Oc2ccccc2)C1c1ccc(O)c(OC)c1 (stereo unspecified) | 51.6 | > 100 | > 100 | > 100 | 81.2 | > 100 | > 100 | > 100 | > 100 | > 100 |  | > 100 | 54.5 | > 100 | > 100 | 49.5 | > 100 | 32.3 |  | > 100
19 | COc1ccc2c(c1)CCCc1cn[nH]c1-2 |  |  |  | > 100 | > 100 | > 100 | > 100 | > 100 | > 100 | > 100 | > 100 | > 100 | > 100 |  |  | > 100 | > 100 | > 100 | > 100 | 
20 | CC(C)CCN=c1cc2n(-c3ccc(Cl)cc3)c3ccccc3nc-2cc1Nc1ccc(Cl)cc1 | 5.74 |  |  | > 56.4 | 12.3 | 18.9 | 26.4 | 20.7 | 17.9 | 26.1 | 18.1 | 10.9 | > 91 |  |  | 25.3 | 18.4 | > 51.8 | 48.5 | 
21 | Cc1cc(C)cc(Nc2nnc3n2S(=O)(=O)c2cc(C#N)c(Cl)cc2S3)c1 |  | 3.42 |  | 32.9 | 19.5 | 17 | > 100 | 26.1 | 1.68 | 9.25 |  | 3.26 | 4.32 |  | 5.98 | 20.7 | 22.1 | 52 | 31.4 | 12.8
